Results reported in the NIST ThermoML archive (doi:10.1021/je900888e).

Assay: mn = molality of the nth substance listed, in mol/kg
Settings: 101 kPa, Liquid; for speed of sound: Pulse-echo method

CC(C)=O [acetone] + CCCC[P+](CCCC)(CCCC)CCCC.[Br-]
m2 = 0
Settings | mass density [kg/m3]
288.15 K | 795.633
293.15 K | 789.952
298.15 K | 784.234
303.15 K | 778.47
308.15 K | 772.661
313.15 K | 766.799

CC#N [acetonitrile] + CCCC[P+](CCCC)(CCCC)CCCC.[Br-]
m2 = 0
Settings | mass density [kg/m3]
288.15 K | 787.275
293.15 K | 781.893
298.15 K | 776.493
303.15 K | 771.067
308.15 K | 765.61
313.15 K | 760.119
323.15 K | 749.031

CCCCO [butan-1-ol] + CCCC[P+](CCCC)(CCCC)CCCC.[Br-]
m2 = 0
Settings | mass density [kg/m3]
288.15 K | 813.269
293.15 K | 809.472
298.15 K | 805.659
303.15 K | 801.817
308.15 K | 797.945
313.15 K | 794.037
323.15 K | 786.081

CCO [ethanol] + CCCC[P+](CCCC)(CCCC)CCCC.[Br-]
m2 = 0
Settings | mass density [kg/m3]
288.15 K | 793.628
293.15 K | 789.354
298.15 K | 785.063
303.15 K | 780.745
308.15 K | 776.392
313.15 K | 772
323.15 K | 763.084

CCCO [propan-1-ol] + CCCC[P+](CCCC)(CCCC)CCCC.[Br-]
m2 = 0
Settings | mass density [kg/m3]
288.15 K | 807.448
293.15 K | 803.46
298.15 K | 799.452
303.15 K | 795.414
308.15 K | 791.344
313.15 K | 787.227
323.15 K | 778.86

CCCC[P+](CCCC)(CCCC)CCCC.[Br-] [tetrabutylphosphonium bromide] + CC#N
Settings | mass density, 288.15 K [kg/m3] | mass density, 293.15 K [kg/m3] | mass density, 298.15 K [kg/m3] | mass density, 303.15 K [kg/m3] | mass density, 308.15 K [kg/m3] | mass density, 313.15 K [kg/m3] | mass density, 323.15 K [kg/m3] | speed of sound, 298.15 K [m/s]
m1 = 0.007874 | 787.927 | 782.552 | 777.157 | 771.738 | 766.288 | 760.805 | 749.733 | –
m1 = 0.01066 | 788.155 | 782.783 | 777.389 | 771.974 | 766.524 | 761.045 | 749.978 | –
m1 = 0.01465 | 788.477 | 783.109 | 777.721 | 772.308 | 766.862 | 761.385 | 750.325 | –
m1 = 0.01965 | 788.885 | 783.521 | 778.136 | 772.724 | 767.283 | 761.811 | 750.761 | –
m1 = 0.02448 | 789.275 | 783.912 | 778.532 | 773.125 | 767.689 | 762.22 | 751.178 | –
m1 = 0.0297 | 789.7 | 784.34 | 778.965 | 773.559 | 768.128 | 762.662 | 751.631 | –
m1 = 0.03509 | 790.132 | 784.784 | 779.405 | 774.005 | 768.58 | 763.119 | 752.095 | –
m1 = 0.03974 | 790.506 | 785.156 | 779.78 | 774.389 | 768.965 | 763.508 | 752.488 | 1280.1
m1 = 0.04929 | 791.273 | 785.93 | 780.567 | 775.178 | 769.76 | 764.31 | 753.307 | 1280.5
m1 = 0.06938 | 792.879 | 787.551 | 782.208 | 776.834 | 771.429 | 765.995 | 755.023 | 1281.4
m1 = 0.08849 | 794.411 | 789.095 | 783.76 | 778.399 | 773.011 | 767.591 | 756.649 | 1282.2
m1 = 0.1056 | 795.783 | 790.48 | 785.156 | 779.812 | 774.43 | 769.023 | 758.107 | –
m1 = 0.1224 | 797.155 | 791.858 | 786.545 | 781.208 | 775.841 | 770.445 | 759.553 | –
m1 = 0.1338 | 798.088 | 792.8 | 787.494 | 782.156 | 776.78 | 771.4 | 760.532 | 1284.1
m1 = 0.1414 | 798.688 | 793.405 | 788.102 | 782.773 | 777.428 | 772.045 | 761.174 | –
m1 = 0.1504 | 799.412 | 794.136 | 788.839 | 783.514 | 778.17 | 772.795 | 761.945 | –
m1 = 0.1671 | 800.758 | 795.492 | 790.206 | 784.9 | 779.563 | 774.2 | 763.372 | 1285.6
m1 = 0.1811 | 801.879 | 796.621 | 791.346 | 786.047 | 780.72 | 775.365 | 764.561 | –
m1 = 0.1987 | 803.297 | 798.049 | 792.784 | 787.498 | 782.184 | 776.843 | 766.064 | 1287
m1 = 0.2296 | 805.781 | 800.553 | 795.309 | 790.042 | 784.751 | 779.433 | 768.697 | 1288.3
m1 = 0.2599 | 808.22 | 803.012 | 797.78 | 792.541 | 787.27 | 781.973 | 771.277 | 1289.5
m1 = 0.2925 | 810.865 | 805.677 | 800.473 | 795.247 | 789.997 | 784.72 | 774.075 | 1290.8
m1 = 0.3259 | 813.591 | 808.424 | 803.241 | 798.038 | 792.811 | 787.558 | 776.962 | 1292.2

CCCC[P+](CCCC)(CCCC)CCCC.[Br-] [tetrabutylphosphonium bromide] + CC(C)=O
Settings | mass density, 288.15 K [kg/m3] | mass density, 293.15 K [kg/m3] | mass density, 298.15 K [kg/m3] | mass density, 303.15 K [kg/m3] | mass density, 308.15 K [kg/m3] | mass density, 313.15 K [kg/m3] | speed of sound, 298.15 K [m/s]
m1 = 0.009972 | 796.516 | 790.843 | 785.133 | 779.385 | 773.586 | 767.735 | 1161.1
m1 = 0.01477 | 796.926 | 791.257 | 785.552 | 779.806 | 774.015 | 768.169 | –
m1 = 0.01959 | 797.328 | 791.666 | 785.967 | 780.225 | 774.439 | 768.597 | 1161.8
m1 = 0.02424 | 797.711 | 792.056 | 786.362 | 780.624 | 774.841 | 769.006 | –
m1 = 0.02891 | 798.099 | 792.447 | 786.758 | 781.026 | 775.247 | 769.416 | –
m1 = 0.03385 | 798.51 | 792.86 | 787.178 | 781.451 | 775.678 | 769.85 | 1162.7
m1 = 0.04786 | 799.673 | 794.037 | 788.362 | 782.648 | 776.885 | 771.075 | 1163.6
m1 = 0.0619 | 800.822 | 795.195 | 789.537 | 783.836 | 778.088 | 772.29 | 1164.5
m1 = 0.07794 | 802.136 | 796.525 | 790.878 | 785.191 | 779.457 | 773.675 | 1165.7
m1 = 0.09642 | 803.646 | 798.046 | 792.414 | 786.74 | 781.022 | 775.257 | 1166.8
m1 = 0.123 | 805.822 | 800.247 | 794.64 | 788.995 | 783.255 | 777.557 | 1168.4
m1 = 0.1559 | 808.487 | 802.938 | 797.356 | 791.736 | 786.072 | 780.36 | 1170.4
m1 = 0.1912 | 811.381 | 805.858 | 800.306 | 794.713 | 789.077 | 783.39 | 1172.7
m1 = 0.2209 | 813.828 | 808.333 | 802.798 | 797.229 | 791.622 | 785.97 | 1174.3
m1 = 0.2576 | 816.813 | 811.345 | 805.845 | 800.309 | 794.734 | 789.113 | 1176.6
m1 = 0.2914 | 819.596 | 814.151 | 808.679 | 803.169 | 797.619 | 792.03 | 1178.7
